Where a name gives a salt, the structure may show the parent alone.
Key:
[1] = tested on: eyes of New Zealand White rabbits; experiment: Pupil diameter, pupillary response and mortality observations after topical ocular instillation in rabbits (Example 10); settings: rabbit, in vivo
Experimental: The objective of this study was to evaluate the ocular pharmacokinetics of a 2% Mecamylamine in a GELRITE solution up to 6 hours following topical instillation into the eyes of New Zealand White rabbits. Nine New Zealand White female rabbits of minimum age of 9 weeks and weight 2-3 kg were obtained from The Rabbit Source (Ramona, Calif.) were used in the study.
On day 1, 2 drops of 50 μL of mecamylamine or vehicle were administered topically into the appropriate eye(s) of each animal as described in Table 13. The time of each dose administration was recorded.

[2] = Ocular bioavailability following intravenous administration (Example 2); type: in vivo, New Zealand White rabbit; settings: rabbit
Description: This study was designed to model the ocular bioavailability of mecamylamine when administered systemically. Rabbit eyes are the preferred model for in vivo modeling of ocular drugs, however, the rabbit is not the subject of choice for modeling oral bioavailability. However, systemic administration does emulate orally administered mecamylamine to a reasonable approximation since mecamylamine has rapid absorption and high oral bioavailability. Therefore, intravenous injection was used to model ocular bioavailability of mecamylamine administered systemically, in order to determine the deposition of mecamylamine to the plasma, vitreous and posterior tissues (retina/choroid) of the eye from the blood.
The study comprised 2 groups (each N=6, 12 rabbits total) of male NZW (New Zealand White) rabbits weighing approximately 2.5-3 kg and obtained from Kralek Farms (Turlock, Calif.). Mecamylamine solution, prepared as described in Example 1, at a dose of 15 mg/kg was delivered via i.v. infusion as either a short infusion (1 hr) or slow infusion (6 hr) in rabbits sedated by ketamine/xylazine, with the slow infusion intended to model controlled systemic release of the mecamylamine.
For both groups, samples of the vitreous(≧0.1 ml) and plasma were withdrawn at 6 time points: pre-dose, 30 min, 1, 2, 4, and 6 hr. At 6 hours, all animals were sacrificed and vitreous and retinal tissues were collected. The total amount of mecamylamine administered during each infusion was the same, based on the weight of the individual rabbit.
The concentrations of mecamylamine present in the various samples were analyzed as described in Example 6, below.

[3] = tested on: endothelial nAChRs; settings: in vitro; endothelial cells; cited from earlier work
[4] = in vivo; settings: rabbit, in vivo
Experimental: As used herein, the term “topically administered to a rabbit eye,” and cognates thereof, refers to the administration of a particular mecamylamine formulation, including formulations of pharmaceutically acceptable salts of mecamylamine, by applying 100 μL of the mecamylamine formulation to the cornea of each eye (2 drops of 50 μL each), wherein at the time of application the bottom eyelid is separated from the surface of the eye to make a pocket to ensure the entire dose is retained in contact with the eye. When the concentration of mecamylamine in plasma and in the retinal/choroidal tissue is to be measured in connection with the calculation of the ratio of the mecamylamine concentration in the retina/choroid versus the concentration of mecamylamine in plasma, the concentration of each is determined 1 hour after application of the formulation. The amount of mecamylamine present in plasma and the retina/choroid is determined by LC/MS/MS using internal standards of dextromethorphan and diphenhydramine and a standard of known concentration of mecamylamine. An exemplary method of administration of the topical formulation of mecamylamine is provided in Example 5. An exemplary LC/MS/MS method for determining the ratios described herein is given in detail in Example 6. When the mean maximum concentration of mecamylamine in plasma is to be determined, the concentration is again determined as described above and in Example 6. The term “mean maximum concentration of mecamylamine,” and its cognates, as used herein refers to the mean maximum concentration of mecamylamine measured in plasma when monitored over a 6 hour time period after administration of the formulation. When the mean total concentration of mecamylamine in plasma is to be determined, the concentration is again determined as described above and in Example 6. The term “total concentration of mecamylamine in plasma measured as the area under the curve,” (AUC) and cognates thereof, refers to summation of the areas under plot of the drug plasma versus time using a simple trapezoidal method with drug plasma time points taken to include 1, 3 and 6 hours after topical administration. Determination of AUC for corneal tissue, retinal/choroid tissue and aqueous humor is determined similarly. When the concentration of mecamylamine in plasma and in the corneal tissue is to be measured in connection with the calculation of the ratio of the mecamylamine concentration in the cornea (or aqueous humor) versus the concentration of mecamylamine in plasma, the concentration of each is determined 1 hour after application of 50 μl of the formulation. The amount of mecamylamine present in plasma and the cornea (or aqueous humor) is determined by LC/MS/MS using internal standards of dextromethorphan and diphenhydramine and a standard of known concentration of mecamylamine. An exemplary method of administration of the topical formulation of mecamylamine is provided in Example 5. An exemplary LC/MS/MS method for determining the ratios described herein is given in detail in Example 6.
A single dose of a polymer-free solution, gellan gum formulation and hypromellose formulation containing 3% mecamylamine hydrochloride, was instilled in the eyes of rabbits (Dutch-belted male rabbits (Convance, Denver, Pa.) minimum age 2 months and with weights of 1.6 to 1.8 kg). Two animals were euthanized 30 minutes, 1 hour or 3 hours after dosing.
Sample of blood and ocular tissue (obtained as described in previous examples) were analyzed for mecamylamine concentration using an LC MS/MS method up to 3 hours after dosing.
The area-under-the-curve (AUC) was calculated using a trapezoidal rule on a population pharmacokinetic basis (see Table 9).

Compound: CNC1(C)C2CCC(C2)C1(C)C (stereo not shown) [mecamylamine hydrochloride]
- pupil diameter and pupil diameter response to light (mydriasis) [1]: did not result in significant changes in pupil diameter or pupil diameter response to light
- mean maximum concentration of mecamylamine in plasma ([2]; long i.v. infusion (FIG. 2)): greater than 500 ng/mL
- mean maximum concentration of mecamylamine in plasma ([2]; short i.v. administration (FIG. 1)): > 1500 ng/mL

Compound: CN1CCCC1c1cccnc1 (stereo not shown) [nicotine]
- concentrations at which the maximal effect of nicotine occurs [3]: 10 to 100 nM

Compound: HPMC
- Aqueous Humor AUC [4]: 7,355 ng/mL*hr
- Cornea AUC [4]: 114000 ng·h/g
- Plasma AUC [4]: 61 ng·h/mL
- Ratio Aqu H:plasma (AUC) [4]: 120
- Ratio Cornea:Plasma (AUC) [4]: 1,868:1
- Ratio Retina/Choroid:Plasma (AUC) [4]: 291:1
- Retina/Choroid AUC [4]: 17800 ng·h/g
- Mecamylamine AUC, Anterior sclera ([4]; topical or ocular): 32790 ng·h/g
- Mecamylamine AUC, Aqueous humor ([4]; topical or ocular): 7355 ng·h/mL
- Mecamylamine AUC, Conjunctiva ([4]; topical or ocular): 114398 ng·h/g
- Mecamylamine AUC, Cornea ([4]; topical or ocular): 113938 ng·h/g
- Mecamylamine AUC, Extraocular muscle ([4]; topical or ocular): 31236 ng·h/g
- Mecamylamine AUC, Iris-ciliary body ([4]; topical or ocular): 114813 ng·h/g
- Mecamylamine AUC, Lens ([4]; topical or ocular): 1064 ng·h/g
- Mecamylamine AUC, Optic Nerve ([4]; topical or ocular): 11515 ng·h/g
- Mecamylamine AUC, Posterior sclera ([4]; topical or ocular): 23638 ng·h/g
- Mecamylamine AUC, Retina/Choroid ([4]; topical or ocular): 17804 ng·h/g
- Mecamylamine AUC, Vitreous humor ([4]; topical or ocular): 335 ng·h/mL

From patent US20070167526A1, “Topical mecamylamine formulations for ocular administration and uses thereof” (priority 2005, published 2007)
